Test results published in PubChem BioAssay AID1963985 (Molecular Pharmacology Branch, DTP, NCI, 2024).

Test system: 252836-082-R-J2-PDC tumor spheroids, viability
Experiment: Anticancer human tumor 252836-082-R-J2-PDC patient-derived head and neck squamous cell carcinoma cell line growth inhibition [PI3K]
Settings: spheroids with HUVEC and MSC; for IC50: curve of first compound; for viability, T/C: stronger effect = lower value
Procedure, shortened: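 Stroma-containing spheroids: tumor line, pooled-donor HUVEC, hMSC. Treatments: targeted agents with PI3K inhibitors. Dosing: clinically relevant, half-log spacing, 10 microM ceiling without known Cmax. Read-out: cell viability.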

[1] = second compound 0.0316 µM, first compound 0.0316 µM
[2] = second compound 0.0316 µM, first compound 0.1 µM
[3] = second compound 0.1 µM, first compound 0.0316 µM
[4] = second compound 0.1 µM, first compound 0.1 µM
[5] = second compound 0.316 µM, first compound 0.0316 µM
[6] = second compound 0.316 µM, first compound 0.1 µM
[7] = second compound 1 µM, first compound 0.0316 µM
[8] = second compound 1 µM, first compound 0.1 µM
[9] = second compound 3.16 µM, first compound 0.0316 µM
[10] = second compound 3.16 µM, first compound 0.1 µM
[11] = second compound 10 µM, first compound 0.0316 µM
[12] = second compound 10 µM, first compound 0.1 µM
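Also: spheroids exposed to agents for seven days before readout.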
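For viability, T/C in this document: percent of vehicle DMSO control viability so 100% = untreated growth.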

`CC(=O)c1c(C)c2cnc(Nc3ccc(N4CCNCC4)cn3)nc2n(C2CCCC2)c1=O` + Cc1nc(NC(=O)N2CCCC2C(N)=O)sc1-c1ccnc(C(C)(C)C(F)(F)F)c1 showed an IC50 (second compound 0.0316 µM) of over 100 nM, an IC50 (second compound 0.1 µM) of over 100 nM and an IC50 (second compound 0.316 µM) of over 100 nM. The IC50 (second compound 1 µM) was over 100 nM, the IC50 (second compound 3.16 µM) was under 0.316 nM and the IC50 (second compound 10 µM) was under 0.316 nM. It also gave a viability, T/C (second compound 0.0316 µM, first compound 0.000316 µM) of 95.6%, a viability, T/C (second compound 0.0316 µM, first compound 0.001 µM) of 83.4% and a viability, T/C (second compound 0.0316 µM, first compound 0.00316 µM) of 91.6%. It also gave a viability, T/C (second compound 0.0316 µM, first compound 0.01 µM) of 79.5%, a viability, T/C [1] of 91.8% and a viability, T/C [2] of 77.7%. It also gave a viability, T/C (second compound 0.1 µM, first compound 0.000316 µM) of 71.9%, a viability, T/C (second compound 0.1 µM, first compound 0.001 µM) of 83.8% and a viability, T/C (second compound 0.1 µM, first compound 0.00316 µM) of 85.7%. The viability, T/C (second compound 0.1 µM, first compound 0.01 µM) was 76.2%, the viability, T/C [3] was 78.9% and the viability, T/C [4] was 73.7%. For the same compound, the viability, T/C (second compound 0.316 µM, first compound 0.000316 µM) was 71.7%, the viability, T/C (second compound 0.316 µM, first compound 0.001 µM) was 74.2% and the viability, T/C (second compound 0.316 µM, first compound 0.00316 µM) was 80.5%. The viability, T/C (second compound 0.316 µM, first compound 0.01 µM) was 65.2%, the viability, T/C [5] was 66.7% and the viability, T/C [6] was 81.5%. It also gave a viability, T/C (second compound 1 µM, first compound 0.000316 µM) of 62.3%, a viability, T/C (second compound 1 µM, first compound 0.001 µM) of 56.3% and a viability, T/C (second compound 1 µM, first compound 0.00316 µM) of 52.7%. It also gave a viability, T/C (second compound 1 µM, first compound 0.01 µM) of 65.6%, a viability, T/C [7] of 64.4% and a viability, T/C [8] of 57.2%. The viability, T/C (second compound 3.16 µM, first compound 0.000316 µM) was 46.1%, the viability, T/C (second compound 3.16 µM, first compound 0.001 µM) was 45.5% and the viability, T/C (second compound 3.16 µM, first compound 0.00316 µM) was 39.2%. It also gave a viability, T/C (second compound 3.16 µM, first compound 0.01 µM) of 43.9%, a viability, T/C [9] of 48.1% and a viability, T/C [10] of 41.1%. It also gave a viability, T/C (second compound 10 µM, first compound 0.000316 µM) of 27.9%, a viability, T/C (second compound 10 µM, first compound 0.001 µM) of 30.6% and a viability, T/C (second compound 10 µM, first compound 0.00316 µM) of 25.9%. It also gave a viability, T/C (second compound 10 µM, first compound 0.01 µM) of 35.7%, a viability, T/C [11] of 33.3% and a viability, T/C [12] of 38.2%.

Work on `CCCS(=O)(=O)Nc1ccc(F)c(C(=O)c2c[nH]c3ncc(-c4ccc(Cl)cc4)cc23)c1F` + Cc1nc(NC(=O)N2CCCC2C(N)=O)sc1-c1ccnc(C(C)(C)C(F)(F)F)c1 yielded an IC50 (second compound 0.0316 µM) of 5160 nM, an IC50 (second compound 0.1 µM) of 4740 nM and an IC50 (second compound 0.316 µM) of 4210 nM. For the same compound, the IC50 (second compound 1 µM) was 3490 nM, the IC50 (second compound 3.16 µM) was 31.6 nM and the IC50 (second compound 10 µM) was under 31.6 nM. The viability, T/C [1] was 94.2%, the viability, T/C [2] was 95.6% and the viability, T/C (second compound 0.0316 µM, first compound 0.316 µM) was 79.9%. It also gave a viability, T/C (second compound 0.0316 µM, first compound 1 µM) of 84.7%, a viability, T/C (second compound 0.0316 µM, first compound 3.16 µM) of 83.7% and a viability, T/C (second compound 0.0316 µM, first compound 10 µM) of 4.52%. The viability, T/C [3] was 84.3%, the viability, T/C [4] was 84.3% and the viability, T/C (second compound 0.1 µM, first compound 0.316 µM) was 86.2%. It also gave a viability, T/C (second compound 0.1 µM, first compound 1 µM) of 96.3%, a viability, T/C (second compound 0.1 µM, first compound 3.16 µM) of 75.1% and a viability, T/C (second compound 0.1 µM, first compound 10 µM) of 3.91%. The viability, T/C [5] was 73.2%, the viability, T/C [6] was 62% and the viability, T/C (second compound 0.316 µM, first compound 0.316 µM) was 80.9%. For the same compound, the viability, T/C (second compound 0.316 µM, first compound 1 µM) was 78.2%, the viability, T/C (second compound 0.316 µM, first compound 3.16 µM) was 63.4% and the viability, T/C (second compound 0.316 µM, first compound 10 µM) was 5.17%. It also gave a viability, T/C [7] of 58.1%, a viability, T/C [8] of 52.7% and a viability, T/C (second compound 1 µM, first compound 0.316 µM) of 64.8%. For the same compound, the viability, T/C (second compound 1 µM, first compound 1 µM) was 57.5%, the viability, T/C (second compound 1 µM, first compound 3.16 µM) was 54.2% and the viability, T/C (second compound 1 µM, first compound 10 µM) was 4.7%. The viability, T/C [9] was 52.2%, the viability, T/C [10] was 38.9% and the viability, T/C (second compound 3.16 µM, first compound 0.316 µM) was 50.9%. For the same compound, the viability, T/C (second compound 3.16 µM, first compound 1 µM) was 54.1%, the viability, T/C (second compound 3.16 µM, first compound 3.16 µM) was 37.2% and the viability, T/C (second compound 3.16 µM, first compound 10 µM) was 7.19%. For the same compound, the viability, T/C [11] was 39.7%, the viability, T/C [12] was 35.7% and the viability, T/C (second compound 10 µM, first compound 0.316 µM) was 43.7%. The viability, T/C (second compound 10 µM, first compound 1 µM) was 37.8%, the viability, T/C (second compound 10 µM, first compound 3.16 µM) was 21.2% and the viability, T/C (second compound 10 µM, first compound 10 µM) was 4.33%.
